From patent EP2411506B1, “TUMOR SUPPRESSION USING HUMAN PLACENTA-DERIVED INTERMEDIATE NATURAL KILLER CELLS AND IMMUNOMODULATORY COMPOUNDS” (Celularity, Inc., priority 2009, dated 2010)

How the values were obtained:
placental NK cells = assay: Luminex (Five-Plex Antibody Kit) of GM-CSF and TNF-α secretion from treated NK cells; settings: treated cultured NK cells compared to controls
Procedure: Secretion of GM-CSF and TNF-α was evaluated by Luminex utilizing a Five-Plex Antibody Kit.

NK cells = assay: Flow cytometry of GZMB-positive NK cells after pomalidomide treatment; format: cell-based, human; settings: increase vs untreated
cultured PINK cells = assay: qRT-PCR gene expression analysis of lenalidomide- and pomalidomide-treated cultured PINK cells; format: cell-based, human; settings: for expression of GM-CSF, increase: treated PINK cells vs untreated
From the text: RNA isolation and purification.
Quantitative real-time (qRT-PCR) analysis.

[1] = test system: day 21 cultivated placental NK cells; assay: ELISA of perforin and granzyme B secretion from treated NK cells; format: cell-based, human; settings: treated day 21 cultivated placental NK cells compared to controls
Procedure: In a separate experiment, secretion of perforin and granzyme B from pomalidomide- or lenalidomide-treated day 21 cultivated placental NK cells was evaluated by ELISA.

[2] = treated vs untreated cultured PINK cells (Veh = 1)
[3] = treated vs untreated cultured PINK cells (Veh = 1.01)

SMILES	increase in GM-CSF secretion (placental NK cells) [%]	increase in TNF-α secretion (placental NK cells) [%]	expression of GM-CSF, increase (cultured PINK cells; qRT-PCR)	Fold change of gene expression: BAX (cultured PINK cells; [2])	Fold change of gene expression: CCL5 (cultured PINK cells; [2])	Fold change of gene expression: CCR5 (cultured PINK cells; [2])	Fold change of gene expression: CD8A (cultured PINK cells; [2])	Fold change of gene expression: CD68 (cultured PINK cells; [2])	Fold change of gene expression: CSF2 (cultured PINK cells; [2])	Fold change of gene expression: FAS (cultured PINK cells; [2])	Fold change of gene expression: GUSB (cultured PINK cells; [2])	Fold change of gene expression: IL2RA (cultured PINK cells; [2])	increase in granzyme B secretion [1] [%]	increase in perforin secretion [1] [%]	further results
Nc1cccc2c1C(=O)N(C1CCC(=O)NC1=O)C2=O (racemic) [pomalidomide, 4-amino-2-[(3RS)-2,6-dioxopiperidin-3-yl)-1H-isoindole-1,3(2H)-dione]	357	147	396% ± 0.3%	2.23	1.78	0.68	2.39	8.74	3.96	1.34	1.76	1.58	69	121	increased percentage of GZMB-positive NK cells (NK cells): 25%; increased granzyme B (GZMB) gene expression (cultured PINK cells; increase vs untreated, qRT-PCR): 60% ± 1.7%; Fold change of gene expression: ACTB (cultured PINK cells; [2]): 0.77; Fold change of gene expression: CCL2 (cultured PINK cells; [2]): 5.46; Fold change of gene expression: CCL3 (cultured PINK cells; [2]): 2.2; Fold change of gene expression: CD80 (cultured PINK cells; [2]): 1.59; Fold change of gene expression: CSF1 (cultured PINK cells; [2]): 1.41; Fold change of gene expression: ECE1 (cultured PINK cells; [2]): 1.56; Fold change of gene expression: GZMB (cultured PINK cells; [2]): 1.59; Fold change of gene expression: IL8 (cultured PINK cells; [2]): 1.62; Fold change of gene expression: LTA (cultured PINK cells; [2]): 2.88; Fold change of gene expression: PRF1 (cultured PINK cells; [2]): 1.17; Fold change of gene expression: PTGS2 (cultured PINK cells; [2]): 1.68; Fold change of gene expression: SKI (cultured PINK cells; [2]): 1.96; Fold change of gene expression: GNLY (cultured PINK cells; [3]): 1.96; Fold change of gene expression: IL1A (cultured PINK cells; [3]): 2.61; Fold change of gene expression: TBX21 (cultured PINK cells; [3]): 2.05; Fold change of gene expression: IL10 (cultured PINK cells; treated vs untreated cultured PINK cells (Veh = 1.02)): 1.52
Nc1cccc2c1CN(C1CCC(=O)NC1=O)C2=O (centres unmarked) [lenalidomide, 3-(4'aminoisoindoline-1'-one)-1-piperidine-2,6-dione]	166	76	232% ± 1.6%	1.39	1.24	0.9	1.3	4.04	2.32	1.11	1.13	1.26	113	86	Fold change of gene expression: TNFRSF18 (cultured PINK cells; [2]): 0.7
